These compounds were tested against p38 MAP kinase (Homo sapiens, UniProt Q16539) (assay: p38 MAP Kinase Assay (33P incorporation into myelin basic protein, filter plate)). Settings: Table 1; MKK6-activated p38, MBP substrate, 50 minutes.
Type: biochemical
Description: The activated p38 is then diluted 1:6 with assay buffer, and 20 μl mixed with 25 μl of MBP mix (300 μl 10×strength assay buffer, 300 μl of 10 mM DTT & 10 mM sodium orthovanadate, 1.7 ml H2O, 50 μCi γ^33P-ATP, 200 μl of myelin basic protein (MBP) (5 mg/ml)) and added to 96 well plates along with 5 μl of various dilutions of the test compound in DMSO (up to 10%). The reaction is allowed to proceed for 50 minutes before being stopped with an excess of ortho-phosphoric acid (30 μl at 2%).
γ^33P-ATP which remains unincorporated into the myelin basic protein is separated from phosphorylated MBP on a Millipore MAPH filter plate. The wells of the MAPH plate are wetted with 0.5% orthophosphoric acid, and then the results of the reaction are filtered with a Millipore vacuum filtration unit through the wells. Following filtration, the residue is washed twice with 200 μl of 0.5% orthophosphoric acid. Once the filters have dried, 25 μl of Microscint 20 scintillant is added, and then counted on a Packard Topcount for 30 seconds.

p38 MAP kinase, sequence (Q16539 whole entry): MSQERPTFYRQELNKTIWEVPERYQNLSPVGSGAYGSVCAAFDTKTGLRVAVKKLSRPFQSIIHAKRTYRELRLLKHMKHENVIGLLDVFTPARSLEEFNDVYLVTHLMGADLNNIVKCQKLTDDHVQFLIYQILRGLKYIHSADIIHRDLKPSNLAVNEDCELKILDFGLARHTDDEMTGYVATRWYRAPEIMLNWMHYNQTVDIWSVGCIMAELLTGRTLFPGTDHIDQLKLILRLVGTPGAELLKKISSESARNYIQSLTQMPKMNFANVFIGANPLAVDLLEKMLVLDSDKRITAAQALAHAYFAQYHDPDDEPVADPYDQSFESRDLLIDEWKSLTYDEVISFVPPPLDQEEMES

| SMILES | IC50 [µM] |
| --- | --- |
| Nc1ncccc1OCc1cccc(Cl)c1F [Compound 27] | < 1000 |
| Nc1ncccc1OCc1c(F)cc(F)cc1F [Compound 32] | < 1000 |
| c1cncc(OCc2cccc3ccccc23)c1 [Compound 11, 3-(1-Naphthylmethyloxy)pyridine] | < 1000 |
| COc1ccccc1COc1cccnc1N [Compound 6, 2-amino-3-(2-methoxybenzyloxy)pyridine] | < 1000 |
| Nc1ncccc1OCc1ccccc1C(F)(F)F [Compound 23] | < 100 |
| Cc1cccc(COc2cccnc2N)c1F [Compound 28] | < 1000 |
| Cc1ccc2ccccc2c1COc1cccnc1N [Compound 30] | < 100 |
| Nc1ncccc1OCc1cc2c(cc1Cl)OCO2 [Compound 18, 2-amino-3-(2-chloro-4,5-(methylenedioxy)benzyloxy)pyridine] | < 1000 |
| Cc1cc(C)cc(COc2cccnc2N)c1 [Compound 19] | < 200 |
| CC(C)(C)c1cc(NC(=O)Nc2ccc(Cl)c(COc3cccnc3)c2)n(-c2ccccc2)n1 [Compound 64, 1-(5-tert-Butyl-2-phenyl-2H-pyrazol-3-yl)-3-[4-chloro-3-(pyridin-3-yloxymethyl)-phenyl]-urea] | < 2 |
| O=C(Nc1cccc(COc2cccnc2)c1)c1ccccc1 [Compound 66, N-[3-(Pyridin-3-yloxymethyl)-phenyl]-benzamide] | < 200 |
| CC(C)(C)c1ccccc1NC(=O)Nc1ccc(F)c(COc2cccnc2)c1 [Compound 78, 1-(2-tert-Butyl-phenyl)-3-[4-fluoro-3-(pyridin-3-yloxymethyl)-phenyl]-urea] | < 20 |
| Nc1ncccc1OCc1ccc(Cl)c(F)c1 [Compound 16, 2-amino-3-(4-chloro-3-fluorobenzyloxy)pyridine] | < 200 |
| O=C(Nc1cccc(COc2cccnc2)c1)c1cc(F)cc(N2CCOCC2)c1 [Compound 67, 3-Fluoro-5-morpholin-4-yl-N-[3-(pyridin-3-yloxymethyl)-phenyl]-benzamide] | < 20 |

Same assay, conditions: Table 2; MKK6-activated p38, MBP substrate, 50 minutes

| SMILES | IC50 [µM] |
| --- | --- |
| Cc1noc(-c2ccccc2)c1C(=O)Nc1ccc(F)c(COc2cnccn2)c1 [Compound 122, 3-Methyl-5-phenyl-isoxazole-4-carboxylic acid [4-fluoro-3-(pyrazin-2-yloxymethyl)-phenyl]-amide] | < 200 |
| O=C(Nc1ccc(F)c(COc2cnccn2)c1)Nc1nnc(C2CCCO2)s1 (stereo not drawn) [Compound 120, 1-[4-Fluoro-3-(pyrazin-2-yloxymethyl)-phenyl]-3-[5-(tetrahydro-furan-2-yl)-[1,3,4]thiadiazol-2-yl]-urea] | < 2 |
| COc1cc(C(=O)Nc2ccc(F)c(COc3cnccn3)c2)nc(Cl)n1 [Compound 105, 2-Chloro-6-methoxy-pyrimidine-4-carboxylic acid [4-fluoro-3-(pyrazin-2-yloxymethyl)-phenyl]-amide] | < 1000 |
| CN1CCC(CC(=O)Nc2cnc(OCc3c(Cl)cccc3Cl)cn2)CC1 [Compound 169] | < 200 |
| O=C(NCCO)c1cnc(OCc2c(Cl)cccc2Cl)cn1 [Compound 112, 5-(2,6-Dichloro-benzyloxy)-pyrazine-2-carboxylic acid (2-hydroxy-ethyl)-amide] | < 1000 |
| OCCNc1cnc(OCc2c(Cl)cccc2Cl)cn1 [Compound 158, 2-[5-(2,6-Dichloro-benzyloxy)-pyrazin-2-ylamino]-ethanol] | < 200 |
| CC(CO)(CO)NC(=O)c1cnc(OCc2c(Cl)cccc2Cl)cn1 [Compound 137, 5-(2,6-Dichloro-benzyloxy)-pyrazine-2-carboxylic acid (2-hydroxy-1-hydroxymethyl-1-methyl-ethyl)-amide] | < 2 |
| Clc1cccc(Cl)c1COc1cnc(N2CCOCC2)cn1 [Compound 152, 4-[5-(2,6-Dichloro-benzyloxy)-pyrazin-2-yl]-morpholine] | < 200 |
| CC(C)(C)c1ccc(-n2nc(C3CC3)cc2NC(=O)Nc2ccc(F)c(COc3cnccn3)c2)cc1 [Compound 164, 1-[2-(4-tert-Butyl-phenyl)-5-cyclopropyl-2H-pyrazol-3-yl]-3-[4-fluoro-3-(pyrazin-2-yloxymethyl)-phenyl]-urea] | < 200 |
| O=C(Nc1ccc(Cl)c(COc2cnccn2)c1)c1ccccc1 [Compound 92, N-[4-Chloro-3-(pyrazin-2-yloxymethyl)-phenyl]-benzamide] | < 20 |
| CC(C)(C)c1cc(NC(=O)Nc2ccc(F)c(COc3cnccn3)c2)n(-c2ccncc2)n1 [Compound 160, 1-(5-tert-Butyl-2-pyridin-4-yl-2H-pyrazol-3-yl)-3-[4-fluoro-3-(pyrazin-2-yloxymethyl)-phenyl]-urea] | < 2 |
| Nc1ccc(Cl)c(COc2cnccn2)c1 [Compound 91] | < 1000 |
| Nc1ncc(OCc2cccc3ccccc23)nc1Br [Compound 83] | < 1000 |
| CC(C)(C)c1cc(NC(=O)Nc2ccc(F)c(COc3cnccn3)c2)n(Cc2ccccc2)n1 [Compound 153, 1-(2-Benzyl-5-tert-butyl-2H-pyrazol-3-yl)-3-[4-fluoro-3-(pyrazin-2-yloxymethyl)-phenyl]-urea] | < 2 |
| Cc1cc(C)c2nc(NC(=O)Nc3ccc(F)c(COc4cnccn4)c3)sc2c1 [Compound 116, 1-(4,6-Dimethyl-benzothiazol-2-yl)-3-[4-fluoro-3-(pyrazin-2-yloxymethyl)-phenyl]-urea] | < 1000 |
| C=CS(=O)(=O)Nc1cnc(OCc2c(Cl)cccc2Cl)cn1 [Compound 145] | < 200 |
| CN1CCCC(CNC(=O)c2cnc(OCc3c(Cl)cccc3Cl)cn2)C1 (stereo not drawn) [Compound 162] | < 1000 |

| SMILES | IC50 [µM] |
| --- | --- |
| O=C(Nc1ccccc1)Oc1cccc(COc2cnccn2)c1 [Compound 107, Phenyl-carbamic acid 3-(pyrazin-2-yloxymethyl)-phenyl ester] | < 200 |
| O=C(Nc1ccc(F)c(COc2cnccn2)c1)Nc1cc(-c2ccccc2)[nH]n1 [Compound 118, 1-[4-Fluoro-3-(pyrazin-2-yloxymethyl)-phenyl]-3-(5-phenyl-1H-pyrazol-3-yl)-urea] | < 2 |
| CC(C)(C)c1cc(NC(=O)Nc2ccc(F)c(COc3cnccn3)c2)n(-c2ccccc2)n1 [Compound 106, 1-(5-tert-Butyl-2-phenyl-2H-pyrazol-3-yl)-3-[4-fluoro-3-(pyrazin-2-yloxymethyl)-phenyl]-urea] | < 2 |
| Nc1cccc(COc2cncc(Cl)n2)c1 [Compound 85] | < 1000 |
| CC(Nc1cnc(OCc2c(Cl)cccc2Cl)cn1)c1ccccc1 (stereo not drawn) [Compound 154, [5-(2,6-Dichloro-benzyloxy)-pyrazin-2-yl]-(1-phenyl-ethyl)-amine] | < 20 |
| CC(C)(C)c1ccc(C(=O)Nc2ccc(F)c(COc3cnccn3)c2)cc1 [Compound 101, 4-tert-Butyl-N-[4-fluoro-3-(pyrazin-2-yloxymethyl)-phenyl]-benzamide] | < 20 |
| CC(C)(C)c1cc(C(=O)Nc2ccc(F)c(COc3cnccn3)c2)cc(C(C)(C)C)c1 [Compound 146, 3,5-Di-tert-butyl-N-[4-fluoro-3-(pyrazin-2-yloxymethyl)-phenyl]-benzamide] | < 2 |
| Cc1nc(-c2cccc(C(=O)Nc3ccc(F)c(COc4cnccn4)c3)c2)cs1 [Compound 151, N-[4-Fluoro-3-(pyrazin-2-yloxymethyl)-phenyl]-3-(2-methyl-thiazol-4-yl)-benzamide] | < 2 |
| O=C(Nc1ccc(F)c(COc2cnccn2)c1)Oc1cccc(C(F)(F)F)c1 [Compound 99, [4-Fluoro-3-(pyrazin-2-yloxymethyl)-phenyl]-carbamic acid 3-trifluoromethyl-phenyl ester] | < 20 |
| CC(C)(CO)C(=O)Nc1cnc(OCc2c(Cl)cccc2Cl)cn1 [Compound 177] | < 200 |
| c1cc(COc2cnccn2)cc(Nc2nc3ccccc3o2)c1 [Compound 109] | < 200 |
| Cc1nc(-c2cc(C(=O)Nc3ccc(F)c(COc4cnccn4)c3)no2)cs1 [Compound 124, 5-(2-Methyl-thiazol-4-yl)-isoxazole-3-carboxylic acid [4-fluoro-3-(pyrazin-2-yloxymethyl)-phenyl]-amide] | < 200 |
| C[S+]([O-])c1nnc(NC(=O)Nc2ccc(F)c(COc3cnccn3)c2)s1 (stereo not drawn) [Compound 159, 1-[4-Fluoro-3-(pyrazin-2-yloxymethyl)-phenyl]-3-(5-methanesulfinyl-[1,3,4]thiadiazol-2-yl)-urea] | < 1000 |
| O=C(Nc1ccc(F)c(COc2cnccn2)c1)Nc1cc(C2CCOCC2)nn1-c1ccc(F)cc1 [Compound 165, 1-[2-(4-Fluoro-phenyl)-5-(tetrahydro-pyran-4-yl)-2H-pyrazol-3-yl]-3-[4-fluoro-3-(pyrazin-2-yloxymethyl)-phenyl]-urea] | < 2 |
| O=C(Nc1ccc(Cl)c(COc2cnccn2)c1)c1ccnc(N2CCOCC2)c1 [Compound 93, N-[4-Chloro-3-(pyrazin-2-yloxymethyl)-phenyl]-2-morpholin-4-yl-isonicotinamide] | < 2 |
| O=C(Nc1ccc(F)c(COc2cnccn2)c1)c1ccc2ccccc2c1 [Compound 131, Naphthalene-2-carboxylic acid [4-fluoro-3-(pyrazin-2-yloxymethyl)-phenyl]-amide] | < 20 |
| Cc1cc(-n2nc(C(C)(C)C)cc2NC(=O)Nc2ccc(F)c(COc3cnccn3)c2)nc(C)n1 [Compound 157, 1-[5-tert-Butyl-2-(2,6-dimethyl-pyrimidin-4-yl)-2H-pyrazol-3-yl]-3-[4-fluoro-3-(pyrazin-2-yloxymethyl)-phenyl]-urea] | < 2 |

— US20060063782A1, “3-Hetero arylmethoxy ! pyridines and their analogues as p38 map kinase inhibitors” (priority 2002, published 2006)
